Data taken from patent publication US20110200527A1, “Peptide Ligand Directed Drug Delivery” (Shanghai Jiaotong University, priority 2007, published 2011).
In brackets after ≈: the same amount, converted by molar mass. One block for each molecule: values may come before it.

What was measured:
H1299 tumor bearing mice = assay: In vivo fluorescence imaging of Cy5.5 labeled peptides; details: tail vein injection, 1 to 6 hours after injection
Method: Both H1299 and SPCA1 xenograft mouse models were prepared by the animal experimental center of Shanghai Cancer Institute. They were used in the in vivo imaging experiments about 3˜4 weeks after tumor cell inoculation (tumor size about 5-7 mm diameter), and humanely sacrificed afterwards. The animal study protocols were approved by the Animal Study Committee of Shanghai Jiaotong University, School of Pharmacy.
At various time points afterwards, the mice were anesthetized and imaged with an Optix in vivo fluorescence imaging system (GE Healthcare). Excepted for the Cy5.5 dye only control, all the other groups contained at least 3 mice. The representative images from the same most representative mouse in each group were shown. The images had been processed using the fluorescence lifetime gating for Cy5.5 (0.8-1.1 ns) to remove most autofluorescent interferences.
Cy5.5 fluorescence distributions inside the mice were imaged at various time points after injection. In all groups including the free dye control, fluorescences were first seen all over the body, and then quickly afterwards in the kidney and bladder. […] But in LARLLT-Cy5.5 injected mice, between 1 to 6 hours after injection, fluorescence signals in the tumor tissue were much stronger, as compared to the surrounding tissues.

H-460 cells = assay: FACS analysis of liposome binding by doxorubicin fluorescence; assay type: cell-based; details: 0.01 to 10 μg/ml doxorubicin, FIG. 8
Method: H-460 cells were grown in cell culture plate under sterile conditions and harvested by scraping. The liposome samples (empty Thermodox liposome, ThermoDox, D4-ThermoDox, D4*-ThermoDox where D4 ThermoDox comprises SEQ ID NO:1 and D4*ThermoDox comprises SEQ ID NO:2) and doxorubicin hydrochloride were added and incubated at 37° C. with H-460 cells for 4 hours. Two different liposomes comprising different amounts of the peptide of the invention (D4-ThermoDox) were tested. The two liposomes were designated D4-ThermoDox2+2, which comprised DPPC:MSPC: DSPE-MPEG2000:D4-DSPE-MPEG2000 in a 90:10:2:2 molar ratio and D4-ThermoDox4+4, which comprised DPPC:MSPC: DSPE-MPEG2000:D4-DSPE-MPEG2000 in a 90:10:4:4 molar ratio. The D4*-ThermoDox comprised DPPC:MSPC: DSPE-MPEG2000:D4*-DSPE-MPEG2000 in a 90:10:2:2 molar ratio. After incubation, the cells were washed 4 times with PBS, and counted by FACS using doxorubicin fluorescence (excitation at 488 nm, and emission at 575 nm).
The following groups were examined: a. Non-treatment control; b. ThermoDox at approx. 0.01-10 μg (doxorubicin)/mL; c. D4-ThermoDox2+2 at approx. 0.01-10 μg (doxorubicin)/mL; d. D4-ThermoDox4+4 at approx. 0.01-10 μg (doxorubicin)/mL; e. D4*-ThermoDox at approx. 0.01-10 μg (doxorubicin)/mL; and f. doxorubicin hydrochloride 0.01-10 μg. […]

H1299 cells = assay: MTT cell killing assay, H1299; assay type: cell-based; details: Homo sapiens, NCI-H1299, H1299, 2 hours exposure, then 48 hours growth, read-out: calculated IC50
Method: (§1) H1299 and SPCA1 cells were plated at the density of 10^4 cells/well in 96-well plates and grown overnight. […] The cells were then washed with fresh medium, and let grown for another 48 hours. The cell viabilities after different treatments were determined using a MTT assay (26).

SPCA1 cells = assay: MTT cell killing assay, SPCA1; assay type: cell-based; details: Homo sapiens, SPCA1, 2 hours exposure, then 48 hours growth, read-out: calculated IC50
Method: as §1

[1] = molecular target: epidermal growth factor receptor (EGFR) on EGFR high-expressing human lung cancer cells (H1299, SPCA1) (human, UniProt P00533 25-1210); assay: cell-based or functional assay

fluorescence signal in the tumor region (H1299 tumor bearing mice): the same as background
Molecule: Cy5.5

Molecule: COc1cccc2c1C(=O)c1c(O)c3c(c(O)c1C2=O)C[C@@](O)(C(=O)CO)C[C@@H]3O[C@H]1C[C@H](N)[C@H](O)[C@H](C)O1 [free doxorubicin, doxorubicin]
doxorubicin uptake (mean fluorescence intensity) (H-460 cells): highest | IC50 (H1299 cells): 5.7 µg/mL (≈ 10.5 µM) | IC50 (SPCA1 cells): 2 µg/mL (≈ 3.68 µM)

B1: control peptide modified liposomes (scrambled peptide RTALLL conjugated to DSPE-PEG2000, inserted into preformed liposomes) (peptide)
peptide: RTALLL
modifications: peptide thiolated with SPDP, reduced with TCEP and coupled to the maleimide of DSPE-PEG2000-Mal; the lipid conjugate is inserted into liposomes
IC50 of cell killing (MTT), doxorubicin liposomes, H1299 cells [1]: 85 µg/mL | IC50 of cell killing (MTT), doxorubicin liposomes, SPCA1 cells [1]: 15 µg/mL
